In US11197846B2, “Methods and compositions for treating cannabis use disorder and mitigating cannabinoid withdrawal” (Pleopharma, L.L.C., priority 2020, dated 2021):
“Also recorded” adds a separate entry of the source.

How the values were obtained:
[1] = Plasma pharmacokinetics of nabilone and gabapentin after oral PP-01 once daily for four doses (LC-MS/MS), Example 1 clinical study; conditions: for AUC(0-t) / AUC(0-inf) / Cmax / Tmax / half-life: human, plasma, oral; for AUC(0-inf): AUC0-∞; for Pharmacokinetics compared with historical controls: nabilone and gabapentin given together as PP-01
From the text: A total of 14 eligible healthy volunteers with moderate to severe CUD and no contraindications to nabilone or gabapentin were randomized to receive PP-01 (nabilone and gabapentin; Test) or Placebo, in a 1:1 ratio, from a randomization table at the start of Period 1 (Day −1). If participants received PP-01 in Period 1, they received Placebo in Period 2; similarly, if participants received Placebo in Period 1, they received PP-01 in Period 2. Participants received oral doses of PP-01 or Placebo approximately 2 hours before a standardized meal on the morning on the second day of each inpatient admission (Day 1, Periods 1 and 2) and continued to receive once-daily dosing in the morning for a total of four doses per period.
On Day 1, the 0-hour PK blood draw was obtained within 30 minutes prior to the first dose of study drug which was administered by the Investigator (or a staff member as delegated by the Investigator) at approximately 120 minutes prior to the morning standardized breakfast. Venous blood samples of approximately 10 mL each were obtained at the following times following the Day 1 dose to assess nabilone and gabapentin concentrations: 30 and 60 minutes, and 2, 3, and 4 hours (within ±5 minutes of each time point), and 6, 8, 12, and 24 hours (within ±10 minutes of each time point) after study drug administration. The CWS was completed by participants prior to dosing (Baseline) and at 4- and 10-hours post-dose and the sleep questionnaire was completed in the morning prior to dosing. Blood samples to assess serum cortisol were obtained in the evening. Routine safety assessments were performed as scheduled.
On Day 4, the 0-hour PK blood draw was obtained within 30 minutes prior to the dosing of study drug, which was administered by the Investigator (or a staff member as delegated by the Investigator) at approximately 120 minutes prior to the morning standardized breakfast. Venous blood samples of approximately 10 mL each were obtained at the following times following the Day 4 dose to assess nabilone and gabapentin concentrations: 30 and 60 minutes, and 2, 3, and 4 hours (within ±5 minutes of each time point), and 6, 8, 12, and 24 hours (within ±10 minutes of each time point) after study drug administration. The CWS was completed by participants prior to dosing and at 4- and 10-hours post-dose and the sleep questionnaire was completed in the morning prior to dosing; the PGI-S and CGI were completed approximately 4 hours after dosing. Blood samples to assess serum cortisol were obtained in the evening. Routine safety assessments were performed as scheduled.
The following PK assessments were assessed in Periods 1 and 2 on Day 1, Day 2 (trough), Day 4, Day 5 (trough), and Day 8 for nabilone and gabapentin. Baseline concentrations were defined as the 0-minute time point (within 30 minutes of dosing) on Day 1 (Periods 1 and 2). • Area under the plasma concentration-time curve from 0 to the last measurable concentration (AUC0-t) • Area under the plasma concentration-time curve extrapolated to infinity (AUC0-∞) • Peak (maximum) plasma concentration of the drug (Cmax) • Time to peak (maximum) plasma concentration (tmax) • Elimination half-life (t1/2)
Venous blood samples of 10 ml each were collected with K2EDTA anticoagulant for Baseline levels of Δ-9-THC, 11-OHTHC and THC-COOH on Day −1 (Periods 1 and 2). For Periods 1 and 2, levels of nabilone and gabapentin were assessed following the time points listed in Table 2 following the first and fourth dose. Study participants returned on Day 8 (Periods 1 and 2) to have PK samples drawn to help determine the terminal half-life of nabilone. The Baseline (0-hour) time point was collected within 30 minutes prior to dosing.
Baseline concentrations of Δ-9-THC, 11-OHTHC and THC-COOH were determined using a validated liquid chromatographic-tandem mass spectroscopy (LC-MS/MS) assay with a lower limit of quantification (LLOQ) of 0.200 ng/mL.

[2] = pH values ranging from 1.2 to 7.0; cited from earlier work
[3] = reported; cited from earlier work
GABA receptors = conditions: concentrations at or below 1 millimolar; cited from earlier work
[4] = 6 mg, nabilone 6 mg, Days 1-2, both sequences, arithmetic mean
[5] = 6 mg, nabilone 6 mg, Days 4-5, both sequences, arithmetic mean
[6] = 600 mg, gabapentin 600 mg, Sequence AB, Days 1-2, arithmetic mean
[7] = 600 mg, gabapentin 600 mg, Sequence AB, Days 4-5, arithmetic mean
[8] = 600 mg, gabapentin 600 mg, Sequence BA, Days 1-2, arithmetic mean
[9] = 600 mg, gabapentin 600 mg, Sequence BA, Days 4-5, arithmetic mean

Compound `CCCCCCC(C)(C)c1cc(O)c2c(c1)OC(C)(C)C1CCC(=O)CC21` (racemic) [Nabilone, (±)-trans-3-(1,1-dimethylheptyl)-6,6a,7,8,10,10a-hexahydro-1-hydroxy-6-6-dimethyl-9H-dibenzo[b,d]pyran-9-one] has an AUC(0-t) ([1]; 6 mg, AUC0-24, nabilone 6 mg, Days 1-2, both sequences, arithmetic mean) of 34.1 ng·h/mL, an AUC(0-t) ([1]; 6 mg, AUC0-24, nabilone 6 mg, Days 4-5, both sequences, arithmetic mean) of 33.9 ng·h/mL and an AUC(0-inf) [1, 4] of 35.8 ng·h/mL. It also gave an AUC(0-inf) [1, 5] of 37.4 ng·h/mL, a Cmax [1, 4] of 8.51 ng/mL and a Cmax [1, 5] of 8.59 ng/mL. The Tmax ([1]; 6 mg, Tmax, nabilone 6 mg, Days 1-2, both sequences, PK population, arithmetic mean ± SD) was 2.5 ± 1.5 h, the Tmax ([1]; 6 mg, Tmax, nabilone 6 mg, Days 4-5, both sequences, arithmetic mean ± SD) was 2.3 ± 0.9 h and the half-life ([1]; 6 mg, t1/2, nabilone 6 mg, Days 1-2, both sequences, arithmetic mean ± SD) was 6.4 ± 1.7 h. For the same compound, the half-life ([1]; 6 mg, t1/2, nabilone 6 mg, Days 4-5, both sequences, arithmetic mean ± SD) was 9.9 ± 2.5 h, the Tmax ([1]; mean time to maximal concentration (Tmax), nabilone) was roughly 2.5 h and the “Pharmacokinetics compared with historical controls” value [1] was “consistent with historical controls”. For the same compound, the “accumulation over the period studied” value ([1]; nabilone, Days 1 to 2 vs Days 4 to 5) was “no accumulation occurred; also recorded: minimal accumulation” and the “solubility in aqueous media” value [2] was “less than 0.5 mg/L”.

In the case of `CCCCCc1cc(O)c2c(c1)OC(C)(C)[C@@H]1CCC(CO)=C[C@@H]21` [11-OH-delta-9-THC, 11-hydroxy-delta-9-tetrahydrocannabinol], the “agonist potency relative to delta-9-THC” value [3] is listed as “more potent agonist than delta-9-THC”.

In the case of `NCC1(CC(=O)O)CCCCC1` [Gabapentin, 1-(aminomethyl)cyclohexaneacetic acid], the t1/2 ([1]; gabapentin 600 mg, Sequence BA, Days 1-2, arithmetic mean) is reported as 5.3 h, the “exposure metrics (Cmax, AUC0-24, AUC0-∞) over time” value ([1]; gabapentin, Days 4 to 5 vs Days 1 to 2) is reported as “exposure slightly increased at Days 4 to 5 compared to Days 1 to 2” and the AUC(0-t) ([1]; 600 mg, AUC0-24, gabapentin 600 mg, Sequence AB, Days 1-2, arithmetic mean) is reported as 65700 ng·h/mL. It also gave an AUC(0-t) ([1]; 600 mg, AUC0-24, gabapentin 600 mg, Sequence AB, Days 4-5, arithmetic mean) of 70500 ng·h/mL, an AUC(0-t) ([1]; 600 mg, AUC0-24, gabapentin 600 mg, Sequence BA, Days 1-2, arithmetic mean) of 53600 ng·h/mL and an AUC(0-t) ([1]; 600 mg, AUC0-24, gabapentin 600 mg, Sequence BA, Days 4-5, arithmetic mean) of 58100 ng·h/mL. For the same compound, the AUC(0-inf) [1, 6] was 70000 ng·h/mL, the AUC(0-inf) [1, 7] was 74900 ng·h/mL and the AUC(0-inf) [1, 8] was 57200 ng·h/mL. The AUC(0-inf) [1, 9] was 63100 ng·h/mL, the Cmax [1, 6] was 6080 ng/mL and the Cmax [1, 7] was 7010 ng/mL. It also gave a Cmax [1, 8] of 5170 ng/mL, a Cmax [1, 9] of 5510 ng/mL and a Tmax ([1]; 600 mg, Tmax, gabapentin 600 mg, Sequence AB, Days 1-2, arithmetic mean ± SD) of 3.7 ± 1.1 h. For the same compound, the Tmax ([1]; 600 mg, Tmax, gabapentin 600 mg, Sequence AB, Days 4-5, arithmetic mean ± SD) was 3.3 ± 0.8 h, the Tmax ([1]; 600 mg, Tmax, gabapentin 600 mg, Sequence BA, Days 1-2, arithmetic mean ± SD) was 3.7 ± 0.5 h and the Tmax ([1]; 600 mg, Tmax, gabapentin 600 mg, Sequence BA, Days 4-5, arithmetic mean ± SD) was 1 ± 1.1 h. It also gave a half-life ([1]; 600 mg, t1/2, gabapentin 600 mg, Sequence AB, Days 1-2, arithmetic mean) of 5.4 h, a half-life ([1]; 600 mg, t1/2, gabapentin 600 mg, Sequence AB, Days 4-5, arithmetic mean) of 5.5 h and a half-life ([1]; 600 mg, t1/2, gabapentin 600 mg, Sequence BA, Days 4-5, arithmetic mean) of 6.3 h. For the same compound, the AUC(0-t) ([1]; AUC0-24, gabapentin, range across days and sequences) was 53600 to 70500 ng·h/mL, the Tmax ([1]; mean Tmax, gabapentin, across days and sequences) was 3.3 to 4 h and the half-life ([1]; mean t1/2, gabapentin, range across treatment (days, sequence)) was 5.3 to 6.3 h. The “Pharmacokinetics compared with historical controls” value [1] was “consistent with historical controls” and the “binding to GABA receptors” value (GABA receptors) was “has not been shown to bind to GABA receptors”.
